Source: ChEMBL document CHEMBL1131933, “Cleavage of the cyclohexyl-subunit of rapamycin results in loss of immunosuppressive activity” (Bioorg Med Chem Lett, 1999)

Columns and labels:
[1] = Compound was tested in vitro for its ability to inhibit the proliferation of the IL-6-dependent hybridoma clone B13-29-15; assay type: functional
[2] = Compound was tested in vitro for inhibitory activity in the mixed lymphocyte reaction (MLR) assay; assay type: functional
[3] = target: Peptidyl-prolyl cis-trans isomerase FKBP1A (Homo sapiens, UniProt P62942); experiment: Compound was tested in vitro for its ability to compete with immobilized FK506 for binding to biotinylated FK506 binding protein 12 in a competitive binding assay
Chain of Peptidyl-prolyl cis-trans isomerase FKBP1A (P62942 whole entry): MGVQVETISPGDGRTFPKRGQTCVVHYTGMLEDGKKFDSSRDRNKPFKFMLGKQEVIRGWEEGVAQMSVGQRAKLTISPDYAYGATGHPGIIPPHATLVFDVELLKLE

Structure (SMILES)	IC50 [1]	IC50 [2]	IC50 [3]
CO[C@H]1C[C@@H]2CC[C@@H](C)[C@@](O)(O2)C(=O)C(=O)N2CCCC[C@H]2C(=O)O[C@H]([C@H](C)C[C@@H]2CC[C@@H](O)[C@H](OC)C2)CC(=O)[C@H](C)/C=C(\C)[C@@H](O)[C@@H](OC)C(=O)[C@H](C)C[C@H](C)/C=C/C=C/C=C/1C [SIROLIMUS]	1 nM	1 nM	–
COC(=O)CC[C@H](CCO)C[C@@H](C)[C@@H]1CC(=O)[C@H](C)/C=C(\C)[C@@H](O)[C@@H](OC)C(=O)[C@H](C)C[C@H](C)/C=C/C=C/C=C(\C)[C@@H](OC)C[C@@H]2CC[C@@H](C)[C@@](O)(O2)C(=O)C(=O)N2CCCC[C@H]2C(=O)O1	200 nM	> 380 nM	3.4 nM
